The structures appear in SMILES notation. pIC50: −log10 of the molar value.

The target in this assay is T1, Lipoprotein-Related Phospholipase A2 (Lp-PLA2) in Human Plasma (Homo sapiens, UniProt Q13093).
T1 construct: 40 μL of equally-divided and thawed mixed human plasma is pre-added; from tissue; host or cells: mixed (pooled) human plasma
T1 sequence (Q13093 22-441): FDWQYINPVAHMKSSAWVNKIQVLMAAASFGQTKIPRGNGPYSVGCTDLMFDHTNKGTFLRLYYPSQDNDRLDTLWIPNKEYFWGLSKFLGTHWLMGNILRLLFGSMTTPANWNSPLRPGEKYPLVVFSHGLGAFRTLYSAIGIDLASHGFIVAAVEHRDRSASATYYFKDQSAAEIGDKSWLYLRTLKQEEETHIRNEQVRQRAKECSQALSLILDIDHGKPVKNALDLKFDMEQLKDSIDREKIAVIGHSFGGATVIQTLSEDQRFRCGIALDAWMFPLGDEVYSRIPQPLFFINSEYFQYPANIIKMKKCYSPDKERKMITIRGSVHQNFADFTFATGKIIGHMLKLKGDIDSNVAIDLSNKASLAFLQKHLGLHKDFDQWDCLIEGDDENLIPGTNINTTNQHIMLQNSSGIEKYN
Kind of assay: Determination of Lp-PLA2 in human plasma (Thio-PAF assay). In kind it is biochemical. To be noted: mixed human plasma, 2-thio-PAF substrate, 30 minutes pre-incubation at room temperature. An excerpt: Determination of Lipoprotein-Related Phospholipase A2 (Lp-PLA2) in Human Plasma.
Human plasma determination utilizes a thioester analogue of phosphatidylcholine (PAF), where hydrolysis leads to the formation of phospholipids containing free thiol groups. The amount of the thiol groups is continuously determined by reacting with CPM (7-diethylamino-3-(4′-maleimidophenyl)-4-methylcoumarin), which is maleimide with increased fluorescence after Michael addition of the thiol groups. This determination can detect the activity of Lp-PLA2 in human plasma, for example, determined by the specific inhibition of the Lp-PLA2 inhibitors.
Thio-PAF determination, as quenched 75 μL determination, is carried out. A compound source plate is prepared by preparing a 1:3 (volume) series of diluents of each compound in pure DMSO on a 96-well microplate. A Rainin multi-channel pipette is used to transfer 3 μL of a compound on the compound source plate into a 96-well microplate where 57 μL of a determination buffer is pre-added, and the compound on the source plate is diluted by 20 folds. The above determination buffer contains 50 mM HEPES (pH 7.4), 150 mM NaCl, and 1 mM CHAPS. A Rainin multi-channel pipette is used to transfer 1 μL of the compound subjected to 20-fold dilution into a 96-well Greiner 655076 (black) microplate where 40 μL of equally-divided and thawed mixed human plasma is pre-added. The plate is oscillated for 20 seconds in an Elisa plate oscillator to be mixed evenly. After 30 minutes of pre-incubation at the room temperature, a Rainin multi-channel pipette is used to add 10 μL of a substrate solution to a 96-well Greiner 655076 (black) microplate, and the substrate solution contains 2.5 mM 2-thio-PAF [from ethanol mother liquor], 32 μM CPM [from DMSO mother liquor] and 3.2 mM NEM (N-ethylmaleimide) [newly prepared in DMSO for each experiment] in a determination buffer composed of 50 mM HEPES (pH 7.4), 150 mM NaCl, and 1 mM CHAPS. After 2 minutes, 25 μL of a 5% trifluoroacetic acid (TFA) aqueous solution is used for quenching the reaction. The plate is centrifuged at 2000 rpm for 1 minute. A Biotek Synergy H1 (H1MF) Elisa reader is used to read the plate at ex:380/em:485. GraphPad Prism 6.0 and Excel are used for IC50 data, curve, and QC analysis.
In the case of `Cc1c(OCc2ccc(Oc3ccnc(C(F)(F)F)c3)c(F)c2)nc(=O)n2c1N1C[C@@H]3C[C@@]1(CC2)CO3` [Example 59, (7aS,10S)-2-((3-fluoro-4-((2-(trifluoromethyl)pyrid-4-yl)oxy)benzyl)oxy)-1-methyl-6,7,10, 11-tetrahydro-4H, 8H-7a,10-methyl-pyrimidinyl[6′,1′: 2,3]pyrimidinyl [6,1-c][1,4]oxazin-4-one], the pIC50 is 8.29. The figure for `CCc1c(OCc2ccc(Oc3ccnc(C(F)(F)F)c3)c(F)c2)nc(=O)n2c1N1C[C@@H]3C[C@@]1(CC2)CO3` [Example 60, (7aS,10S)-1-ethyl-2-((3-fluoro-4-((2-(trifluoromethyl)pyrid-4-yl)oxy)benzyl)oxy)-6,7,10, 11-tetrahydro-4H, 8H-7a,10-methyl-pyrimidinyl [6′,1′:2,3] pyrimidinyl[6,1-c] [1,4]oxazin-4-one] is 7.91. The same measure for `O=c1nc(OCc2cc(F)c(Oc3ccnc(Cl)c3)c(F)c2)c(F)c2n1CC[C@]13CO[C@H](CN21)C3` [Example 61, (7aS, 10S)-2-((4-((2-chloropyrid-4-yl)oxy)-3,5-difluorobenzyl)oxy)-1-fluoro-6,7,10,11-tetrahydro-4H,8H-7a, 10-methylamino-pyrimidine[6′,1′:2,3] pyrimidine[6,1-c] [1,4]oxazin-4-one]: 8.15.

As for `COc1c(OCc2ccc(Oc3ccnc(C(F)(F)F)c3)c(F)c2)nc(=O)n2c1N1C[C@@H]3C[C@@]1(CC2)CO3` [Example 62, (7aS,10S)-2-((3-fluoro-4-((2-(trifluoromethyl)pyrid-4-yl)oxy)benzyl)oxy)-1-methoxy-6,7,10, 11-tetrahydro-4H, 8H-7a,10-methyl-pyrimidinyl [6′,1′:2,3] pyrimidinyl[6,1-c] [1,4]oxazin-4-one], the pIC50 was 8.28. The figure for `COc1c(OCc2cc(F)c(Oc3ccnc(OC(F)(F)F)c3)c(F)c2)nc(=O)n2c1N1C[C@@H]3C[C@@]1(CC2)CO3` [Example 63] is 8.26; for `N#Cc1c(OCc2ccc(Oc3ccnc(C(F)(F)F)c3)c(F)c2)nc(=O)n2c1N1CCCC1CC2` (stereo not drawn) [Example 64, 2-((3-fluoro-4-((2-(trifluoromethyl)pyrid-4-yl)oxy)benzyl)oxy)-4-oxo-6,7,7a,8,9,10-hexahydro-4H-pyrimidinyl [1,6-a]pyrrolo [1,2-c]pyrimidine-1-nitrile] it is 8.24.

As a reminder, the pIC50 is the IC50 on a negative log10 scale, so that one unit is a factor of ten.

These data come from patent US20240246995A1, “PYRIMIDINONE DERIVATIVE AND PREPARATION METHOD THEREFOR, PHARMACEUTICAL COMPOSITION, AND USE” (SHANGHAI SIMR BIOTECHNOLOGY CO., LTD., priority 2021, published 2024).
